These results are taken from patent US20250289787A1, “HERBICIDAL 2-OXO-NICOTINIC ACID DERIVATIVES” (SYNGENTA CROP PROTECTION AG, priority 2022, published 2025).

Common to all, as to assay type: in vivo
What all share (parameters): key: 5=81-100%; 4=61-80%; 3=41-60%; 2=21-40%; 1=1-20%; 0=no damage to the plant; -=not tested

Assay [1] relates to Amaranthus retoflexus (AMARE). The assay is described as follows: Pre-emergence test, herbicidal damage. To be noted: 1000 g/ha unless otherwise stated, evaluated after 13 days, five-point scale.
The subject of assay [2] is Zea mays (ZEAMX). The assay is described as follows: Pre-emergence test, herbicidal damage. The settings on record: 1000 g/ha unless otherwise stated, evaluated after 13 days, five-point scale.
Assay [3] concerns Amaranthus retoflexus (AMARE). As to the kind of experiment: Post-emergence test, herbicidal damage. To be noted: sprayed after 8 days cultivation, 1000 g/ha unless otherwise stated, evaluated after 13 days, five-point scale. The method in brief: (§1)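 Pots in a glasshouse (24 °C/16 °C day/night, 14 h light, 65% humidity) were sprayed at 1000 g/ha in acetone/water (50:50) with 0.5% Tween 20. Percentage damage was scored after 13 days on a 0–5 scale (5 = 81–100%, 1 = 1–20%, 0 = no damage).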

Assay [4] deals with Echinochloa crus-galli (ECHCG). As to the kind of experiment: Post-emergence test, herbicidal damage. The settings on record: sprayed after 8 days cultivation, 1000 g/ha unless otherwise stated, evaluated after 13 days, five-point scale. Summed up: as §1
Assay [5] deals with Zea mays (ZEAMX). The assay is described as follows: Post-emergence test, herbicidal damage. The settings on record: sprayed after 8 days cultivation, 1000 g/ha unless otherwise stated, evaluated after 13 days, five-point scale. The method in brief: as §1
For assay [6], the system named is Setaria faberi (SETFA). The assay is described as follows: Post-emergence test, herbicidal damage. The settings on record: sprayed after 8 days cultivation, 1000 g/ha unless otherwise stated, evaluated after 13 days, five-point scale. Summed up: as §1
Assay [7] deals with Ipomoea hederacea (IPOHE). The assay is described as follows: Post-emergence test, herbicidal damage. To be noted: sprayed after 8 days cultivation, 1000 g/ha unless otherwise stated, evaluated after 13 days, five-point scale. The method in brief: as §1
Assay [8] has as its system Amaranthus palmeri (AMAPA). As to the kind of experiment: Post-emergence test, herbicidal damage. The settings on record: sprayed after 8 days cultivation, 1000 g/ha unless otherwise stated, evaluated after 13 days, five-point scale. Summed up: as §1
The subject of assay [9] is Echinochloa crus-galli (ECHCG). The assay is described as follows: Pre-emergence test, herbicidal damage. The settings on record: 1000 g/ha unless otherwise stated, evaluated after 13 days, five-point scale.
Assay [10] concerns Ipomoea hederacea (IPOHE). The assay is described as follows: Pre-emergence test, herbicidal damage. To be noted: 1000 g/ha unless otherwise stated, evaluated after 13 days, five-point scale.
Assay [11] concerns Setaria faberi (SETFA). As to the kind of experiment: Pre-emergence test, herbicidal damage. To be noted: 1000 g/ha unless otherwise stated, evaluated after 13 days, five-point scale.
The test system of assay [12] is Amaranthus palmeri (AMAPA). As to the kind of experiment: Pre-emergence test, herbicidal damage. To be noted: 1000 g/ha unless otherwise stated, evaluated after 13 days, five-point scale.

As to `Cc1cc(-c2ccc(Cl)c(Cl)c2)c(C(=O)O)c(=O)n1-c1ccc(F)cc1` [Compound 16, 4-(3,4-dichlorophenyl)-1-(4-fluorophenyl)-6-methyl-2-oxo-pyridine-3-carboxylic acid], the “percentage damage caused to the plant, AMARE” value in assay [1] is listed as 0; in assay [3] it was 1 (1=1-20%). Besides, the results for the “percentage damage caused to the plant, ZEAMX” value in assay [2] and in assay [5] were 0 and 1 (1=1-20%), respectively. Moreover, the “percentage damage caused to the plant, ECHCG” value in assay [4] is listed as 1 (1=1-20%); in assay [9], 0. Besides, the “percentage damage caused to the plant, SEFTA” value was 2 (2=21-40%) in assay [6] and 0 in [11]. In addition, the “percentage damage caused to the plant, IPOHE” value in [7] is listed as 1 (1=1-20%); in assay [10], 0. The “percentage damage caused to the plant, AMAPA” value in [8] is given as 2 (2=21-40%); in assay [12], 0.

As to `Cc1cc(-c2ccc(Cl)c(Cl)c2)c(C(=O)O)c(=O)[nH]1` [Compound 7, 4-(3,4-dichlorophenyl)-6-methyl-2-oxo-1H-pyridine-3-carboxylic acid], the “percentage damage caused to the plant, AMARE” value in assay [1] and in assay [3] was 0 in each case. The “percentage damage caused to the plant, ZEAMX” value in assay [2] and in assay [5] was 0 each time. For the same compound, the “percentage damage caused to the plant, ECHCG” value in [4] and in [9] was 0 throughout. The “percentage damage caused to the plant, SEFTA” value in assay [6] and in [11] was 0 each time. Further, the “percentage damage caused to the plant, IPOHE” value in [7] and in [10] was 0 each time. The “percentage damage caused to the plant, AMAPA” value in assay [8] and in [12] was 0 throughout.

As for `Cc1c(Cl)c(-c2ccc(Cl)c(Cl)c2)c(C(=O)O)c(=O)n1-c1ccc(F)cc1` [Compound 20, 5-chloro-4-(3,4-dichlorophenyl)-1-(4-fluorophenyl)-6-methyl-2-oxo-pyridine-3-carboxylic acid], the “percentage damage caused to the plant, AMARE” value in assay [1] and in [3] was 4 (4=61-80%) each time. Further, the “percentage damage caused to the plant, ZEAMX” value in [2] was 0; in [5], 4 (4=61-80%). The “percentage damage caused to the plant, ECHCG” value in [4] is recorded as 2 (2=21-40%); in [9], 1 (1=1-20%). Besides, the figures for the “percentage damage caused to the plant, SEFTA” value in [6] and in assay [11] were 4 (4=61-80%) and 2 (2=21-40%), respectively. Moreover, the “percentage damage caused to the plant, IPOHE” value is given as 2 (2=21-40%) in [7] and 1 (1=1-20%) in [10]. Besides, the “percentage damage caused to the plant, AMAPA” value in assay [8] and in [12] was 5 (5=81-100%) each time.

As to `C=Cc1c(C)[nH]c(=O)c(C(=O)O)c1-c1ccc(Cl)c(Cl)c1` [Compound 8, 4-(3,4-dichlorophenyl)-6-methyl-2-oxo-5-vinyl-1H-pyridine-3-carboxylic acid], the “percentage damage caused to the plant, AMARE” value is 0 in [1] and 1 (1=1-20%) in assay [3]. Further, the “percentage damage caused to the plant, ZEAMX” value is on record as 0 in assay [2] and 1 (1=1-20%) in [5]. The results for the “percentage damage caused to the plant, ECHCG” value in assay [4] and in assay [9] were 1 (1=1-20%) and 0, respectively. Moreover, the “percentage damage caused to the plant, SEFTA” value is 1 (1=1-20%) in assay [6] and 0 in assay [11]. The “percentage damage caused to the plant, IPOHE” value in [7] is recorded as 1 (1=1-20%); in [10], 0. Further, the “percentage damage caused to the plant, AMAPA” value in assay [8] and in [12] was 1 (1=1-20%) in each case.

`CCc1c(-c2ccc(Cl)c(Cl)c2)c(C(=O)O)c(=O)n(-c2ccc(Cl)cc2F)c1C` [Compound 35, 1-(4-chloro-2-fluoro-phenyl)-4-(3,4-dichlorophenyl)-5-ethyl-6-methyl-2-oxo-pyridine-3-carboxylic acid]: the “percentage damage caused to the plant, AMARE” value in [1] and in assay [3] was 4 (4=61-80%) each time. The “percentage damage caused to the plant, ZEAMX” value in assay [2] and in [5] was 0 in each case. The “percentage damage caused to the plant, ECHCG” value in assay [4] is reported as 0; in [9], 1 (1=1-20%). Also, the “percentage damage caused to the plant, SEFTA” value in assay [6] and in [11] was 0 throughout. Further, the “percentage damage caused to the plant, IPOHE” value in assay [7] is on record as 1 (1=1-20%); in assay [10] it was 0. The “percentage damage caused to the plant, AMAPA” value in assay [8] and in [12] was 4 (4=61-80%) throughout.

For the compound `Cc1[nH]c(=O)c(C(=O)O)c(-c2ccc(Cl)c(Cl)c2)c1C#N` [Compound 11, 5-cyano-4-(3,4-dichlorophenyl)-6-methyl-2-oxo-1H-pyridine-3-carboxylic acid], the “percentage damage caused to the plant, AMARE” value in [1] and in assay [3] was 0 in each case. Moreover, the “percentage damage caused to the plant, ZEAMX” value in [2] and in assay [5] was 0 throughout. Also, the “percentage damage caused to the plant, ECHCG” value in assay [4] and in assay [9] was 0 throughout. Also, the “percentage damage caused to the plant, SEFTA” value in [6] and in [11] was 0 each time. The “percentage damage caused to the plant, IPOHE” value in [7] and in [10] was 0 each time. The “percentage damage caused to the plant, AMAPA” value in assay [8] and in [12] was 0 in each case.

In the case of `Cc1c(O)c(-c2ccc(Cl)c(Cl)c2)c(C(=O)O)c(=O)n1-c1ccc(Cl)cc1F` [Compound 42, 1-(4-chloro-2-fluoro-phenyl)-4-(3,4-dichlorophenyl)-5-hydroxy-6-methyl-2-oxo-pyridine-3-carboxylic acid], the “percentage damage caused to the plant, AMARE” value in [1] and in assay [3] was 2 (2=21-40%) throughout. The “percentage damage caused to the plant, ZEAMX” value in [2] and in [5] was 0 throughout. In addition, the “percentage damage caused to the plant, ECHCG” value was 0 in assay [4] and 1 (1=1-20%) in assay [9]. Also, the “percentage damage caused to the plant, SEFTA” value in assay [6] and in assay [11] was 0 in each case. Also, the figures for the “percentage damage caused to the plant, IPOHE” value in [7] and in assay [10] were 1 (1=1-20%) and 0, respectively. In addition, the “percentage damage caused to the plant, AMAPA” value in assay [8] and in assay [12] was 2 (2=21-40%) throughout.

Regarding `Cc1c(Cl)c(-c2ccc(Cl)c(Cl)c2)c(C(=O)O)c(=O)n1Cc1ccc(C(F)(F)F)cc1F` [Compound 28, 5-chloro-4-(3,4-dichlorophenyl)-1-[[2-fluoro-4-(trifluoromethyl)phenyl]methyl]-6-methyl-2-oxo-pyridine-3-carboxylic acid], the “percentage damage caused to the plant, AMARE” value in [1] and in assay [3] was 3 (3=41-60%) in each case. Besides, the “percentage damage caused to the plant, ZEAMX” value in assay [2] and in assay [5] was 1 (1=1-20%) in each case. Also, the figures for the “percentage damage caused to the plant, ECHCG” value in assay [4] and in [9] were 0 and 1 (1=1-20%), respectively. For the same compound, the “percentage damage caused to the plant, SEFTA” value was 1 (1=1-20%) in assay [6] and 0 in [11]. For the same compound, the “percentage damage caused to the plant, IPOHE” value in assay [7] and in [10] was 1 (1=1-20%) throughout. Also, the “percentage damage caused to the plant, AMAPA” value in assay [8] and in assay [12] was 4 (4=61-80%) throughout.
